Source: patent US20070027175A1, “Antineoplastic activities of ellipticine and its derivatives” (priority 2005, published 2007)
“Also recorded” adds a separate entry of the source.

What was measured:
RPMI 8226 cells = test: Drug resistance and cytotoxicity MTT assay, RPMI 8226; type: cell-based, human; details: 96 hours
Method: (§1) FIGS. 13A-13B show dose response of RPMI 8226 and 8226/Dox1V myeloma cells to EPED3 (FIG. 13A) or Dox (FIG. 13B). Cells were incubated for 96 hours with drug concentrations as indicated and analyzed by MTT assays; linear regression analysis was used to determine the IC50 for each drug (EPED3, FIG. 13A; Dox, FIG. 13B) and each cell line (RPMI8226, squares; 8226/Dox1V, circles). Data are presented as the mean of four independent experiments.
(§2) The 8226/Dox1V and its parental line, RPMI 8226, cells were plated in 96-well plates at 10,000 cells/well and incubated with serial dilutions of EPED3 or Dox, as previously described (Landowski et al., 1999). After 96 hours incubation at 37° C., MTT was added to each well at a final concentration of 20 μg/ml and incubated an additional 4 hours. Plates were centrifuged and the media replaced with 0.1 ml DMSO to solublize the formazan complex. Optical density was measured at 540 nm using a Bio-Tek microplate spectrophotometer. IC50 values were calculated by linear regression analysis (Origins® Software Technologies, Inc.) of the log-linear plot for percent survival versus log drug concentration.
In drug resistance studies, the efficacy of EPED3 with 8226/Dox1V cells and the parental line, RPMI 8226 cells was investigated. Both cell lines were treated with either EPED3 or Dox, and the MTT assays were used to assess cell growth. […]

NCI-60 cancer panel = details: average across the cell lines of the concentration at which growth is inhibited 50%; unit in the High Conc. footnote; cited from earlier work
[1] = tested on: myeloma cell lines ARK, KMS11, RPMI 8226, and U266; test: In vitro screening of DTP compounds on myeloma cell lines (CellTiter-Glo); type: cell-based, human; design: effect on myeloma cell growth among tested ellipticine derivatives: dose or concentration left out as unconfirmed
Method: Eight myeloma cell lines were contacted with the antineoplastic agents to be tested in ninety six well culture plates. […]
Myeloma cell lines were maintained at >90% viability at 37° C. and 5% CO2. Cells were diluted to 20,000 cells/ml in fresh medium. A 50-μl aliquot of cell suspension was seeded in 96-well tissue culture plates to final cell counts of 1,000 cells/well. All compounds obtained from NCI's Developmental Therapeutics Program (DTP compounds) were dissolved in 100% dimethylsulfoxide (DMSO) (Sigma-Aldrich, St. Louis, Mo.) at 1 mg/ml and further diluted in fresh medium to 1 μg/ml. Each compound (50-μl aliquots) was distributed to a well containing 1,000 myeloma cells. Each plate included controls with addition of only medium or only DMSO (0.5% final concentration). All experiments were conducted in triplicate.
Using CellTiter-Glo Luminescent Assay kit (Promega, Madison, Wis.) according to manufacturer's instructions, cell viability was assayed every 24 hours after addition of DTP compound for 5 days. Briefly, the CellTiter-Glo substrate was dissolved in buffer, and 100 μl was added to each well. […] The statistic sampling distribution for each compound per cell line was based on sample of n=15 measurements.
Other ellipticine derivatives from the DTP (at 0.5 mM final concentration) were used to screen the same four myeloma cell lines.

[2] = tested on: non myeloma cancer cell lines HEL, HL-60, k562, MEG01, THP1, Hela, G401, Du145, sw480, sw620, saoS2, MG63; test: Overall cell growth inhibition, non myeloma cancer cell lines (CellTiter-Glo); type: cell-based; design: dose or concentration left out as unconfirmed; details: 5 days
Method: Five non myeloma cancer cell lines, HEL (▮), HL-60 (▴), k562 (X), MEG01 ( ? ) and THP1 (▪) were exposed to NSC 388258 over a period of 5 days. The dose was set at 0.2 mM. […] The results obtained from these controls are pooled together in the figure (●).
Seven non myeloma cancer cell lines, Hela (▮), G401 (▴), Du145 (X), sw480, (*) sw620 (▪), SaoS2 (I) and MG63 (−) were exposed to NSC 388258 over a period of 5 days. The dose was set at 0.2 mM. […] The results obtained from these controls are pooled together in the figure (●).
To test the overall cell growth inhibition of NSC 338258, twelve non myeloma cancer cell lines, HEL, HL-60, k562, MEG01, THP1, Hela, G401, Du145, sw480, sw620, saoS2, and MG63, were exposed to the compound in 96 well cell culture plates for a period of five days.

8226/Dox1V cells = test: Drug resistance and cytotoxicity MTT assay, 8226/Dox1V; type: cell-based, human
Method: as §1
The 8226/Dox1V cell line was established by chronic exposure to Dox in presence of P-glycoprotein inhibitor, verapamil and was characterized by reduced expression and activity of topo II (Futscher et al., 1993).
as §2
In drug resistance studies, the efficacy of EPED3 with 8226/Dox1V cells and the parental line, RPMI 8226 cells was investigated. Both cell lines were treated with either EPED3 or Dox, and the MTT assays were used to assess cell growth. Linear regression analysis of 96-hour dose-response curves was used to compare cytotoxicity of EPED3 in 8226/Dox1V and RPMI 8226 cell lines.

[3] = 50 mg/kg; intraperitoneal injection; P388 Leukemia-bearing CD2F1 mice; cited from earlier work
[4] = tested on: RPMI8226 myeloma cell line; test: CellTiter-Glo luminescent cell viability assay, RPMI8226; type: cell-based, human; design: unit of the concentration uncertain
Method: The dosage of each derivative was set at 2, 0.2 and 0.02 mM. A cell culture medium control and 0.5% DMSO control was maintained in each experiment. The cell viability was tested each day over a period of five days using the CellTiter-Glo luminescent cell viability assay kit from Promega Co.
Cell Titer-Glo luminescent cell viability assay kit from Promega Co (Madison, Wis.) was used to determine cell growth inhibition by the various compounds tested. The kit determines cell viability by quantifying the amount of ATP present in the cell culture medium. Presence of ATP signals the presence of metabolically active cells (3). The intensity of luminescence was measured by a computerized luminometer (Promega, Co. Madison, Wis.). Each well was read five times within 30 minutes of adding Cell Titer-Glo reagent mixture. […]

## Cc1c2ccncc2c(C)c2c1[nH]c1ccc(OCCN(C)C)cc12 [NSC 338258, ellipticine, 9-dimethyl amino-ethoxy-]
RPMI 8226 cells
  IC50: 0.15 µM
NCI-60 cancer panel
  Mean GI50: −6.57 log^10 molar
[1]; 0.5 mg/ml, every 24 hours over 5 days
  inhibition of cell viability in four myeloma cell lines: most significantly inhibited cell viability; also recorded: significant anti-myeloma effect
[1]; four myeloma cell lines
  effect on myeloma cell growth among tested ellipticine derivatives: best among the tested ellipticine derivatives
[1]; myeloma cell lines
  effective invitro dosage (cell growth inhibition): 0.2 µM
[2]
  activity against non-myeloma cell lines: effective against non-myeloma cell lines
8226/Dox1V cells; 8226/Dox1V, 96 hours
  IC50: 0.131 µM
8226/Dox1V cells; ratio of IC50, 96 hours
  resistance of 8226/Dox1V versus parental RPMI 8226: no significant resistance
[3]
  animals survived EPED3 toxicity for at least 5 days: five out of six
[4]; 0.02 (unit uncertain), Day 1
  cell viability (CellTiter-Glo luminescent assay): 94,826
[4]; 0.02 (unit uncertain), Day 2
  cell viability (CellTiter-Glo luminescent assay): 180,382
[4]; 0.02 (unit uncertain), Day 3
  cell viability (CellTiter-Glo luminescent assay): 302,609
[4]; 0.02 (unit uncertain), Day 4
  cell viability (CellTiter-Glo luminescent assay): 516,569
[4]; 0.02 (unit uncertain), Day 5
  cell viability (CellTiter-Glo luminescent assay): 777,427
[4]; 0.2 (unit uncertain), Day 1
  cell viability (CellTiter-Glo luminescent assay): 3,790
[4]; 0.2 (unit uncertain), Day 2
  cell viability (CellTiter-Glo luminescent assay): 2,320
[4]; 0.2 (unit uncertain), Day 3
  cell viability (CellTiter-Glo luminescent assay): 1,254
[4]; 0.2 (unit uncertain), Day 4
  cell viability (CellTiter-Glo luminescent assay): 1,026
[4]; 0.2 (unit uncertain), Day 5
  cell viability (CellTiter-Glo luminescent assay): 321
[4]; 2 (unit uncertain), Day 1
  cell viability (CellTiter-Glo luminescent assay): 4,685
[4]; 2 (unit uncertain), Day 2
  cell viability (CellTiter-Glo luminescent assay): 923
[4]; 2 (unit uncertain), Day 3
  cell viability (CellTiter-Glo luminescent assay): 871
[4]; 2 (unit uncertain), Day 4
  cell viability (CellTiter-Glo luminescent assay): 234
[4]; 2 (unit uncertain), Day 5
  cell viability (CellTiter-Glo luminescent assay): 104
